# According to patent US20240082433A1, “TUMOR RESECTION PROCESS AND COMPOSITION CONTAINING IRIDIUM-CONTAINING NUCLEOSIDE” (Cleveland State University, priority 2022, published 2024):
# Experiments:
# brain cancer cells (U87) [1] = assay: Uptake/fluorescence imaging in 3D and 2D U87 brain cancer cell culture; type: cell-based, human
# Method: To improve the imaging capabilities of this class of compound, additional analogs corresponding to Ir(III)-BZQ nucleoside and Ir(III)-PBO nucleoside (FIG. 5) were synthesized and tested for uptake using 3-dimensional cell culture techniques. […] Fluorescent microscopy was used to investigate the uptake of each nucleoside in which cells were treated with 1 μM of each compound for 24 hours. […] This conclusion is based on the more intense fluorescent signal observed in cells treated with Ir(III)-BZQ nucleoside that accurately defines the overall 3-dimensional shape of the cancerous mass. In particular, the overall intensity in green fluorescence caused by the uptake of Ir(III)-BZQ nucleoside is about 5 times greater than observed in cells treated with equivalent concentrations of Ir(III)-PPY nucleoside. […] While this represents an interesting phenomenon, this behavior precludes the ability of Ir(III)-PBO nucleoside to function as a “tumor margin” imaging agents since there is no defined outline of the cancerous mass.
# (§1) Fluorescent microscopy techniques were used to measure both red and green fluorescence associated with the cellular uptake of the analog over a three (3) day treatment period. […] The fluorescent signals are only observed in the 3D cancerous masses, thus making them easily identifiable at low magnification (10×).
# FIG. 10 compares fluorescence activity of Ir(III)-BZQ nucleoside with Indocyanine green at a fixed concentration of 10 μM. Images were taken comparing fluorescence emission in the red (600-700 nm) and green spectral range (500-600 nm) after 24 hours post-treatment.
# brain cancer cells (U87) [2] = assay: Cell-killing effects against 2D and 3D U87 brain cancer cells by microscopy; type: cell-based, human; conditions: for cell-killing / therapeutic activity: U87 3D masses and 2D cells, 10 μM
# Method: FIG. 7 illustrates the time-dependent uptake and cell-killing effects of Ir(III)-BZQ nucleoside (10 μM) against 2D and 3D brain cancer cells.
# as §1
# MDA-MB-453 = assay: Uptake/fluorescence in 3D TNBC model MDA-MB-453; type: cell-based
# Method: (§2) The theranostic activity of […] was also confirmed using 3D models of triple negative breast cancer (TNBC) (MDA-MB-453, MDA-MB-468, BT-549, MDA-MB-231). TNBC cells were chosen due to the poor prognosis caused by their aggressive nature and limited treatment options. 3D cancer cells were treated with 10 μM Ir(III)-BZQ nucleoside for 24 hours prior to microscopy analyses.
# Two (2) new Iridium-nucleosides designated Ir(III)-PPY-nucleoside (small, hydrophobic) and Ir(III)-PBO nucleoside (small, hydrophilic) were synthesized and tested as cancer imaging agents. FIG. 14 compares the imaging properties of these two analogs versus our lead agent, Ir(III)-BZQ nucleoside (small, hydrophobic). Experiments were performed treating MDA-MB-453 cells with 1 μM of each compound for 3 days. […] This phenomenon precludes its further development as a tumor margin imaging agent as it poorly defines the entire 3D mass as compared to Ir(III)-BZQ nucleoside and Ir(III)-PPY nucleoside.
# [3] = system: cervical cancer cells (KB3-1 cell line); assay: Cellular uptake into KB3-1 cells by fluorescence microscopy; type: cell-based, human
# Method: FIG. 3 includes fluorescence microscopy images of the dose-dependent uptake of Ir(III)-PPY nucleoside in the human cancer cell line, KB3-1, particularly showing increased Ir(III)-PPY nucleoside (green) as a function of increasing concentration (Δt=4 hours).
# Several Iridium-containing nucleosides were synthesized and their imaging and anti-cancer activities were characterized. One non-limiting example of a compound is designated as Ir(III)-PPY nucleoside and shown in FIG. 2 next to deoxyadenosine. The synthetic design relies on the catalyzed [3+2] cycloaddition of azides to terminal alkynes. In this design, pyridyl triazoles covalently link the metal atom to the deoxyribose and this prevents metal dissociation from the complex. The cellular uptake of Ir(III)-PPY nucleoside into cervical cancer cells (KB3-1 cell line) was evaluated by treating cells with variable concentrations of Ir(III)-PPY nucleoside (0-50 μM). At times ranging from 4 to 24 hours, fluorescence microscopy images were taken using an excitation wavelength (λex) of 340 nm and an emission wavelength (λem) of 480 nm. […] The uptake of low concentrations (10 μM) of Ir(III)-PPY nucleoside can be visualized as early as 4 hours post treatment. […] Thus, the cellular uptake can be measured on short time scales (Δt<12 hours) without complications arising from effects on cell viability.
# [4] = system: cervical cancer cells (KB3-1 cell line); assay: Cytotoxic effects in KB3-1 cells; type: cell-based, human; conditions: KB3-1, after 24 hours
# From the text: Several Iridium-containing nucleosides were synthesized and their imaging and anti-cancer activities were characterized. One non-limiting example of a compound is designated as Ir(III)-PPY nucleoside and shown in FIG. 2 next to deoxyadenosine. The synthetic design relies on the catalyzed [3+2] cycloaddition of azides to terminal alkynes. In this design, pyridyl triazoles covalently link the metal atom to the deoxyribose and this prevents metal dissociation from the complex. The cellular uptake of Ir(III)-PPY nucleoside into cervical cancer cells (KB3-1 cell line) was evaluated by treating cells with variable concentrations of Ir(III)-PPY nucleoside (0-50 μM). At times ranging from 4 to 24 hours, fluorescence microscopy images were taken using an excitation wavelength (λex) of 340 nm and an emission wavelength (λem) of 480 nm. […] The uptake of low concentrations (10 μM) of Ir(III)-PPY nucleoside can be visualized as early as 4 hours post treatment. Ir(III)-PPY nucleoside produces weak cytotoxic effects (IC50˜50 μM) after 24 hours. Thus, the cellular uptake can be measured on short time scales (Δt<12 hours) without complications arising from effects on cell viability.
# [5] = system: human brain cancer cell line, U87, that expresses red fluorescent protein (RFP); assay: Selective uptake in co-culture, RFP-U87 cells, fluorescent microscopy; type: cell-based; conditions: RFP-U87 co-cultured with normal fibroblasts, 10 μM, 4 hours
# From the text: FIG. 4 includes microscopy images showing co-localization of Ir(III)-PPY nucleoside in glioblastoma cells expressing red-fluorescent protein (RFP-U87).
# (§3) Fluorescent microscopy was then used to validate that the uptake of Ir(III)-PPY nucleoside is selective for cancer cells. FIG. 4 compares the uptake of Ir(III)-PPY nucleoside using a human brain cancer cell line, U87, that expresses red fluorescent protein (RFP) versus normal fibroblasts. In these experiments, RFP-U87 cells were co-cultured with normal fibroblasts overnight and then treated with 10 μM Ir(III)-PPY nucleoside for 4 hours. […] Similar results were obtained at longer time intervals encompassing 24 hours incubation with Ir(III)-PPY nucleoside (data not shown).
# normal fibroblasts [6] = assay: Selective uptake in co-culture, normal fibroblasts, fluorescent microscopy; type: cell-based; conditions: co-cultured with RFP-U87, 10 μM, 4 hours
# Method: as §3
# MDA-MB-468 = assay: Uptake/fluorescence in 3D TNBC model MDA-MB-468; type: cell-based; conditions: 3D MB-468, 10 μM, 24 hours
# Method: as §2
# BT-549 = assay: Uptake/fluorescence in 3D TNBC model BT-549; type: cell-based; conditions: 3D BT-549, 10 μM, 24 hours
# Method: as §2
# MDA-MB-231 = assay: Uptake/fluorescence in 3D TNBC model MDA-MB-231; type: cell-based; conditions: 3D MB-231, 10 μM, 24 hours
# Method: as §2
# [7] = system: MT1A2 cells (derived from PyMT); assay: Uptake/fluorescence in MT1A2 cells; type: cell-based; conditions: MT1A2, 10 μM, 24 hours
# normal fibroblasts [8] = assay: LD50 in 2D cell culture, normal fibroblasts; type: cell-based; conditions: 2D cell cultures
# From the text: The therapeutic activity and selectivity of Ir(III)-BZQ nucleoside was confirmed by measuring LD50 values against MB-468 cells (high accumulation), MDA-MB-231 (low accumulation), and normal fibroblasts using 2D cell cultures (Table 1, below).
# MDA-MB-468 cells = assay: Dual parameter flow cytometry (Annexin V / propidium iodide) apoptosis; type: cell-based; conditions: MDA-MB-468, variable concentrations
# From the text: Dual parameter flow cytometry employing Annexin V and propidium iodide staining was used to measure apoptosis in MDA-MB-468 cells treated with variable concentrations of Ir(III)-BZQ nucleoside. […] Microscopy imaging verifies an increase in green fluorescence caused by the accumulation of Ir(III)-BZQ nucleoside and correlates with the dose-dependent increase in apoptosis caused by the agent.
# [9] = U87, 10 μM, three days vs 1 day
compound,measurement,setting,value
"CC1(C)C(/C=C/C=C/C=C/C=C2\N(CCCCS(=O)(=O)O)c3ccc4ccccc4c3C2(C)C)=[N+](CCCCS(=O)(=O)[O-])c2ccc3ccccc3c21 [Indocyanine green, reference compound]","fluorescence emission in the red spectral range (600-700 nm), direct comparison","brain cancer cells (U87) [1]; 10 μM, 24 hours post-treatment",superior fluorescence emission activity
same,red fluorescence in U87 cells,"brain cancer cells (U87) [1]; 1 and 10 μM, after 24 hours, 10× magnification",dose-and time dependent increase in red fluorescence
same,fluorescence emission activity in the red spectral range (600-700 nm) relative to Ir(III) BZQ nucleoside,"brain cancer cells (U87) [1]; U87, identical concentrations (1 and 10 μM), 24 hours",~5 times
same,cell-killing / therapeutic activity,brain cancer cells (U87) [2]; 1 to 3 days treatment,no detectable therapeutic activity
same,overall size of the 3D masses,"brain cancer cells (U87) [2]; U87, 10 μM, 1 to 3 days treatment",increases as a function of time
F[P-](F)(F)(F)(F)F.OCC1OC(n2cc(-c3ccccn3)nn2)CC1O.c1ccc(-c2ncco2)[c]([Ir][c]2ccccc2-c2ncco2)c1 [Ir(III)-PBO nucleoside],fluorescence pattern in cells,"brain cancer cells (U87) [1]; U87 3D masses, 1 μM, 24 hours",unique punctates
same,red fluorescence,"brain cancer cells (U87) [1]; U87 3D masses, 1 μM, 24 hours",not observed
same,fluorescence pattern in cells,"MDA-MB-453; MDA-MB-453, 1 μM, 3 days",unique punctates
F[P-](F)(F)(F)(F)F.OCC1OC(n2cc(-c3ccccn3)nn2)CC1O.c1ccc(-c2cccc[c]2[Ir][c]2ccccc2-c2ccccn2)nc1 [Ir(III)-PPY nucleoside],intracellular accumulation (green fluorescence),"[3]; KB3-1, 0-50 μM, 4 to 24 hours, λex 340 nm, λem 480 nm",dose-dependent
same,time post treatment at which uptake can be visualized,"[3]; KB3-1, 10 μM",≤ 4 h
same,IC50,[4],~50 µM
same,uptake in U87 cancer cells,[5],rapidly accumulates
same,uptake in normal fibroblasts,normal fibroblasts [6],no uptake
same,red fluorescence,"brain cancer cells (U87) [1]; U87 3D masses, 1 μM, 24 hours",not observed
F[P-](F)(F)(F)(F)F.OCC1OC(n2cc(-c3ccccn3)nn2)CC1O.c1cnc2c(c1)ccc1ccc[c]([Ir][c]3cccc4ccc5cccnc5c34)c12 [Ir(III)-BZQ nucleoside],"fluorescence emission in the green spectral range (500-600 nm), direct comparison","brain cancer cells (U87) [1]; 10 μM, 24 hours post-treatment",superior fluorescence emission
same,imaging activity amongst the three compounds tested,"brain cancer cells (U87) [1]; U87 3D masses, 1 μM, 24 hours",superior activity
same,red fluorescence,"brain cancer cells (U87) [1]; U87 3D masses, 1 μM, 24 hours",display red fluorescence
same,overall intensity in green fluorescence relative to Ir(III)-PPY nucleoside,"brain cancer cells (U87) [1]; U87 3D masses, 1 μM, 24 hours, equivalent concentrations",about 5 times
same,fluorescence signal in 2D cells,"brain cancer cells (U87) [1]; U87, 10 μM, 10× magnification",Little to no fluorescence signal
same,fluorescence signals in 3D cancerous masses,"brain cancer cells (U87) [1]; U87, 10 μM, after 1 day, 10× magnification",intense red and green fluorescence signals
same,fluorescence signals in 3D masses,"brain cancer cells (U87) [1]; U87, 10 μM, after three days",still show intense fluorescence signals
same,cell-killing / therapeutic activity,brain cancer cells (U87) [2]; 1 to 3 days treatment,possesses cell-killing activity
same,cell-killing effect on 2D cells,brain cancer cells (U87) [2]; [9],reduction in the number of 2D cells
same,cell-killing effect on 3D masses,brain cancer cells (U87) [2]; [9],death of cells that reside at the outer fringe of the cancerous mass
same,fluorescence signals (uptake and accumulation),"MDA-MB-453; 3D MB-453, 10 μM, 24 hours",high fluorescence signals
same,fluorescence intensity compared to Ir(III)-PPY nucleoside and Ir(III)-PBO nucleoside,"MDA-MB-453; MDA-MB-453, 1 μM, 3 days",~5 fold
same,imaging activity among the three compounds,"MDA-MB-453; MDA-MB-453, 1 μM, 3 days",superior activity
same,fluorescence signals (uptake and accumulation),MDA-MB-468,high fluorescence signals
same,fluorescence signals (uptake and accumulation),BT-549,weak fluorescence
same,fluorescence signals (uptake and accumulation),MDA-MB-231,weak fluorescence
same,fluorescence signals (uptake and accumulation),[7],no fluorescence signals
same,cytotoxic effects (LD50),normal fibroblasts [8],minimal cytotoxic effects
same,apoptosis,MDA-MB-468 cells,increase in both early- and late-stage apoptosis
same,necrotic cell death,MDA-MB-468 cells,without causing necrotic cell death
